Assay results published in patent publication US20240270762A1, “PENICILLIN-BINDING PROTEIN INHIBITORS” (priority 2021, published 2024).
≈ marks a conversion by molar mass, not a printed value.

What was measured:
P. aeruginosa CDC-0090 = experiment: microbe, parasite or virus in culture; format: cell-based; settings: Pseudomonas aeruginosa, CDC0090, read-out: Minimum inhibitory concentration, P. aeruginosa CDC-0090
[1] = molecular target: T1, PBP3 from Acinetobacter baumannii (ATCC 19606) (Acinetobacter baumannii, UniProt A0ABX6CK25); experiment: Bocillin-FL fluorescence polarization competition binding, A. baumannii PBP3; settings: fluorescence polarization competition binding assay using Bocillin-FL; read-out: A. baumannii PBP3 Potency
T1 sequence (A0ABX6CK25 64-610): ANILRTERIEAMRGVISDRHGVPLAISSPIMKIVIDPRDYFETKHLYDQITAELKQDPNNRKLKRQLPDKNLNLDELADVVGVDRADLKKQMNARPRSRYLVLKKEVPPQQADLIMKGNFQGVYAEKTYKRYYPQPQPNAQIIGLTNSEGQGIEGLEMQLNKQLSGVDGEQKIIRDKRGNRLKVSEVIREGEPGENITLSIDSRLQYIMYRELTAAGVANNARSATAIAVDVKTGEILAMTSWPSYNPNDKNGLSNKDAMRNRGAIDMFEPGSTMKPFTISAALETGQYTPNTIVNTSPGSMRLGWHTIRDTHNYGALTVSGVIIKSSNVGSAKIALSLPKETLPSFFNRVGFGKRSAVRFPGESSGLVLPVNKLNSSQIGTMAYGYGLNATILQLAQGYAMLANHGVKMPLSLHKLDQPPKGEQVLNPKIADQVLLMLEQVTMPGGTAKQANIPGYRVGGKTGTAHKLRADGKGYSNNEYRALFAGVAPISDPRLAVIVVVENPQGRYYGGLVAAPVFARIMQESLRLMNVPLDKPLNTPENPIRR
Outline: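 Purified PBPs pre-incubated with inhibitor (E. coli PBP3 1.5 μM, 30 min; P. aeruginosa PBP3 0.75 μM, A. baumannii PBP1a 1 μM and PBP3 0.2 μM, 15 min), then Bocillin-FL 0.1 μM (0.05 μM for PBP1a) added; FP read up to 60 min. EC50 = concentration halving bound Bocillin-FL.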

[2] = tested on: P. aeruginosa (ΔmexAB-oprM); experiment: Broth microdilution MIC in iron-depleted CAMHB (IDM); format: cell-based; settings: Pseudomonas aeruginosa; iron-depleted CAMHB (IDM); […]; read-out: Minimum inhibitory concentration, P. aeruginosa ΔmexAB-oprM
P. aeruginosa CDC-0110 = experiment: microbe, parasite or virus in culture; format: cell-based; settings: Pseudomonas aeruginosa, CDC0110, read-out: Minimum inhibitory concentration, P. aeruginosa CDC-0110

O=C(NCCCN1CCN(C(=O)NC(C(=O)N[C@H]2Cc3ccc(F)c(C(=O)O)c3OB2O)c2cc(F)c(O)c(O)c2Cl)C(=O)C1=O)c1cc(O)c(F)c(O)c1 (stereo partly drawn) [Example 416, (3R)-3-(2-(2-chloro-5-fluoro-3,4-dihydroxyphenyl)-2-(4-(3-(4-fluoro-3,5-dihydroxybenzamido)propyl)-2,3-dioxopiperazine-1-carboxamido)acetamido)-7-fluoro-2-hydroxy-3,4-dihydro-2H-benzo[e][1,2]oxaborinine-8-carboxylic acid]
MIC (P. aeruginosa CDC-0090): < 1 µg/mL | IC50 [1]: < 10 µM | MIC [2]: < 1 µg/mL | MIC (P. aeruginosa CDC-0110): < 1 µg/mL

O=C(NCCS(=O)(=O)N1CCN(C(=O)N[C@H](C(=O)N[C@H]2Cc3ccc(F)c(C(=O)O)c3OB2O)c2cc(F)c(O)c(O)c2Cl)C1=O)c1ccc(O)cc1 [Example 286, (R)-3-((S)-2-(2-chloro-5-fluoro-3,4-dihydroxyphenyl)-2-(3-((2-(4-hydroxybenzamido)ethyl)sulfonyl)-2-oxoimidazolidine-1-carboxamido)acetamido)-7-fluoro-2-hydroxy-3,4-dihydro-2H-benzo[e][1,2]oxaborinine-8-carboxylic acid]
MIC (P. aeruginosa CDC-0090): > 128 µg/mL | IC50 [1]: 50 to 250 µM | MIC [2]: > 128 µg/mL | MIC (P. aeruginosa CDC-0110): > 128 µg/mL

O=C(NCCCN1CCN(C(=O)N[C@@H](C(=O)N[C@H]2Cc3ccc(F)c(C(=O)O)c3OB2O)c2cc(F)c(O)c(O)c2Cl)C(=O)C1=O)c1cc(F)c(O)cc1F (single isomer, unassigned) [Example 473]
MIC (P. aeruginosa CDC-0090): 2 to 4 µg/mL (≈ 2.51 to 5.03 µM) | IC50 [1]: < 10 µM | MIC [2]: < 1 µg/mL | MIC (P. aeruginosa CDC-0110): < 1 µg/mL

O=C(NCCCN1CCN(C(=O)NC(C(=O)N[C@H]2Cc3ccc(F)c(C(=O)O)c3OB2O)c2cc(F)c(O)c(O)c2Cl)C(=O)C1=O)c1cc(F)c(F)c(O)c1F (stereo partly drawn) [Example 404, (3R)-3-(2-(2-chloro-5-fluoro-3,4-dihydroxyphenyl)-2-(2,3-dioxo-4-(3-(2,4,5-trifluoro-3-hydroxybenzamido)propyl)piperazine-1-carboxamido)acetamido)-7-fluoro-2-hydroxy-3,4-dihydro-2H-benzo[e][1,2]oxaborinine-8-carboxylic acid]
MIC (P. aeruginosa CDC-0090): 2 to 4 µg/mL (≈ 2.46 to 4.91 µM) | IC50 [1]: < 10 µM | MIC [2]: < 1 µg/mL | MIC (P. aeruginosa CDC-0110): < 1 µg/mL

O=C(NCCCN1CCN(C(=O)N[C@@H](C(=O)N[C@H]2Cc3ccc(F)c(C(=O)O)c3OB2O)c2cc(F)c(O)c(O)c2Cl)C(=O)C1=O)c1ccc(O)cc1F (racemic) [Example 417]
MIC (P. aeruginosa CDC-0090): 8 to 16 µg/mL (≈ 10.3 to 20.6 µM) | IC50 [1]: 10 to 50 µM | MIC [2]: < 1 µg/mL | MIC (P. aeruginosa CDC-0110): 32 to 64 µg/mL (≈ 41.1 to 82.3 µM)

O=C(O)c1c(F)ccc2c1OB(O)[C@@H](NC(=O)C(NC(=O)N1CCN(C3CCN(C(=O)Cc4cccc(O)c4)CC3)C(=O)C1=O)c1cc(F)c(O)c(O)c1Cl)C2 (stereo partly drawn) [Example 474, (3R)-3-(2-(2-chloro-5-fluoro-3,4-dihydroxyphenyl)-2-(4-(1-(2-(3-hydroxyphenyl)acetyl)piperidin-4-yl)-2,3-dioxopiperazine-1-carboxamido)acetamido)-7-fluoro-2-hydroxy-3,4-dihydro-2H-benzo[e][1,2]oxaborinine-8-carboxylic acid]
MIC (P. aeruginosa CDC-0090): < 1 µg/mL | IC50 [1]: < 10 µM | MIC [2]: < 1 µg/mL | MIC (P. aeruginosa CDC-0110): < 1 µg/mL

O=C(NCCCN1CCN(C(=O)NC(C(=O)N[C@H]2Cc3ccc(F)c(C(=O)O)c3OB2O)c2cc(F)c(O)c(O)c2Cl)C(=O)C1=O)c1ccc(F)c(O)c1F (stereo partly drawn) [Example 411, (3R)-3-(2-(2-chloro-5-fluoro-3,4-dihydroxyphenyl)-2-(4-(3-(2,4-difluoro-3-hydroxybenzamido)propyl)-2,3-dioxopiperazine-1-carboxamido)acetamido)-7-fluoro-2-hydroxy-3,4-dihydro-2H-benzo[e][1,2]oxaborinine-8-carboxylic acid]
MIC (P. aeruginosa CDC-0090): < 1 µg/mL | IC50 [1]: < 10 µM | MIC [2]: < 1 µg/mL | MIC (P. aeruginosa CDC-0110): < 1 µg/mL

O=C(NCCCN1CCN(C(=O)N[C@@H](C(=O)N[C@H]2Cc3ccc(F)c(C(=O)O)c3OB2O)c2cc(F)c(O)c(O)c2Cl)C(=O)C1=O)c1cc(F)nc(F)c1 (racemic) [Example 401]
MIC (P. aeruginosa CDC-0090): < 1 µg/mL | IC50 [1]: < 10 µM | MIC [2]: < 1 µg/mL | MIC (P. aeruginosa CDC-0110): < 1 µg/mL

O=C(O)c1c(F)ccc2c1OB(O)[C@@H](NC(=O)C(NC(=O)N1CCN(Cc3ccc(O)c(O)c3Cl)C(=O)C1=O)c1cc(F)c(O)c(O)c1Cl)C2 (stereo partly drawn) [Example 292, (3R)-3-(2-(4-(2-chloro-3,4-dihydroxybenzyl)-2,3-dioxopiperazine-1-carboxamido)-2-(2-chloro-5-fluoro-3,4-dihydroxyphenyl)acetamido)-7-fluoro-2-hydroxy-3,4-dihydro-2H-benzo[e][1,2]oxaborinine-8-carboxylic acid]
MIC (P. aeruginosa CDC-0090): < 1 µg/mL | IC50 [1]: < 10 µM | MIC [2]: < 1 µg/mL | MIC (P. aeruginosa CDC-0110): > 128 µg/mL

O=C(O)c1c(F)ccc2c1OB(O)[C@@H](NC(=O)C(NC(=O)N1CCN(C3CCN(S(=O)(=O)c4ccc(O)cc4)CC3)C(=O)C1=O)c1cc(F)c(O)c(O)c1Cl)C2 (stereo partly drawn) [Example 429, (3R)-3-(2-(2-chloro-5-fluoro-3,4-dihydroxyphenyl)-2-(4-(1-((4-hydroxyphenyl)sulfonyl)piperidin-4-yl)-2,3-dioxopiperazine-1-carboxamido)acetamido)-7-fluoro-2-hydroxy-3,4-dihydro-2H-benzo[e][1,2]oxaborinine-8-carboxylic acid]
MIC (P. aeruginosa CDC-0090): < 1 µg/mL | IC50 [1]: < 10 µM | MIC [2]: < 1 µg/mL | MIC (P. aeruginosa CDC-0110): < 1 µg/mL

O=C(NCCCN1CCN(C(=O)NC(C(=O)N[C@H]2Cc3ccc(F)c(C(=O)O)c3OB2O)c2cc(F)c(O)c(O)c2Cl)C1=O)c1cccnc1 (stereo partly drawn) [Example 281, (3R)-3-(2-(2-chloro-5-fluoro-3,4-dihydroxyphenyl)-2-(3-(3-(nicotinamido)propyl)-2-oxoimidazolidine-1-carboxamido)acetamido)-7-fluoro-2-hydroxy-3,4-dihydro-2H-benzo[e][1,2]oxaborinine-8-carboxylic acid]
MIC (P. aeruginosa CDC-0090): 2 to 4 µg/mL (≈ 2.79 to 5.58 µM) | IC50 [1]: < 10 µM | MIC [2]: < 1 µg/mL | MIC (P. aeruginosa CDC-0110): 2 to 4 µg/mL (≈ 2.79 to 5.58 µM)

O=C(NCCCS(=O)(=O)N1CCN(C(=O)NC(C(=O)N[C@H]2Cc3ccc(F)c(C(=O)O)c3OB2O)c2cc(F)c(O)c(O)c2Cl)C1=O)Nc1cccc(O)c1 (stereo partly drawn) [Example 277, (3R)-3-(2-(2-chloro-5-fluoro-3,4-dihydroxyphenyl)-2-(3-((3-(3-(3-hydroxyphenyl)ureido)propyl)sulfonyl)-2-oxoimidazolidine-1-carboxamido)acetamido)-7-fluoro-2-hydroxy-3,4-dihydro-2H-benzo[e][1,2]oxaborinine-8-carboxylic acid]
MIC (P. aeruginosa CDC-0090): 2 to 4 µg/mL (≈ 2.47 to 4.93 µM) | IC50 [1]: < 10 µM | MIC [2]: < 1 µg/mL | MIC (P. aeruginosa CDC-0110): 8 to 16 µg/mL (≈ 9.87 to 19.7 µM)

O=C(O)c1c(F)ccc2c1OB(O)[C@@H](NC(=O)[C@@H](NC(=O)N1CCN(C3CCN(C(=O)Nc4ccc(O)cc4)CC3)C1=O)c1cc(F)c(O)c(O)c1Cl)C2 (single isomer, unassigned) [Example 467]
MIC (P. aeruginosa CDC-0090): < 1 µg/mL | IC50 [1]: < 10 µM | MIC [2]: < 1 µg/mL | MIC (P. aeruginosa CDC-0110): < 1 µg/mL

O=C(NCCCN1CCN(C(=O)NC(C(=O)N[C@H]2Cc3ccc(F)c(C(=O)O)c3OB2O)c2cc(F)c(O)c(O)c2Cl)C(=O)C1=O)c1ccnc(F)c1 (stereo partly drawn) [Example 466, (3R)-3-(2-(2-chloro-5-fluoro-3,4-dihydroxyphenyl)-2-(4-(3-(2-fluoroisonicotinamido)propyl)-2,3-dioxopiperazine-1-carboxamido)acetamido)-7-fluoro-2-hydroxy-3,4-dihydro-2H-benzo[e][1,2]oxaborinine-8-carboxylic acid]
MIC (P. aeruginosa CDC-0090): 2 to 4 µg/mL (≈ 2.62 to 5.24 µM) | IC50 [1]: < 10 µM | MIC [2]: < 1 µg/mL | MIC (P. aeruginosa CDC-0110): < 1 µg/mL

O=C(NCCS(=O)(=O)N1CCN(C(=O)NC(C(=O)N[C@H]2Cc3ccc(F)c(C(=O)O)c3OB2O)c2cc(F)c(O)c(O)c2Cl)C1=O)Nc1ccc(O)cc1 (stereo partly drawn) [Example 289, (3R)-3-(2-(2-chloro-5-fluoro-3,4-dihydroxyphenyl)-2-(3-((2-(3-(4-hydroxyphenyl)ureido)ethyl)sulfonyl)-2-oxoimidazolidine-1-carboxamido)acetamido)-7-fluoro-2-hydroxy-3,4-dihydro-2H-benzo[e][1,2]oxaborinine-8-carboxylic acid]
MIC (P. aeruginosa CDC-0090): 2 to 4 µg/mL (≈ 2.51 to 5.02 µM) | IC50 [1]: < 10 µM | MIC [2]: < 1 µg/mL | MIC (P. aeruginosa CDC-0110): 2 to 4 µg/mL (≈ 2.51 to 5.02 µM)

CN(CCCN1CCN(C(=O)NC(C(=O)N[C@H]2Cc3ccc(F)c(C(=O)O)c3OB2O)c2cc(F)c(O)c(O)c2Cl)C(=O)C1=O)C(=O)c1cccc(O)c1 (stereo partly drawn) [Example 310, (3R)-3-(2-(2-chloro-5-fluoro-3,4-dihydroxyphenyl)-2-(4-(3-(3-hydroxy-N-methylbenzamido)propyl)-2,3-dioxopiperazine-1-carboxamido)acetamido)-7-fluoro-2-hydroxy-3,4-dihydro-2H-benzo[e][1,2]oxaborinine-8-carboxylic acid]
MIC (P. aeruginosa CDC-0090): 2 to 4 µg/mL (≈ 2.58 to 5.17 µM) | IC50 [1]: < 10 µM | MIC [2]: < 1 µg/mL | MIC (P. aeruginosa CDC-0110): < 1 µg/mL
